Data from patent US20230064976A1, “AMORPHOUS FORM OR CRYSTALLINE FORM OF 2-INDOLINOLINOLOLYLSPIRONONE COMPOUNDS OR THEIR SALTS, SOLVENT COMPLEXES” (ASCENTAGE PHARMA (SUZHOU) CO., LTD., priority 2020, published 2023).

Legend:
Type in all cases: physicochemical
[1] = Stability test of crystalline form XI (different temperature and humidity)
Excerpt: Place the sample of Form XI under high temperature, high humidity 75% RH conditions, and sample on Day 0, Day 5, Day 10 and Day 30 to investigate its content, related substances and crystal forms.

[2] = Dynamic Vapour Sorption (DVS) hygroscopicity test; conditions: for Weight Gain (80% RH): DVS
Protocol: The instruments used and their parameters are as follows: XPRD—X-ray powder diffraction, using Bruker D8 Advance Diffractometer to characterize solids. Copper target wavelength is 1.54 Å Kα radiation (40 kV, 40 mA), 0-20 goniometer, Mo monochromator, Lynxeye detector, detection angle is 3-40° 2θ/3-30° 20, step size It is 0.02° 20, the speed is 0.2 s/step, and the detection sample weight is >2 mg. TGA—Thermo gravimetric analysis, using TA Instruments Q500 TGA, the detection sample size is 1 mg-10 mg, the common detection method is Hi-Res sensitivity 3.0, Ramp 10.00° C./min, res 5.0 to 150.00° C., Ramp 10.00° C./min to 350° C. DSC—differential scanning calorimetry analysis, using TA Instruments Q200 DSC, the detection sample weight is 0.5 mg-5 mg, the gas flow rate is 40 mL/min, the common detection method is Equilibrate, 20° C., Ramp 10° C./min to 280° C.-300° C. DVS—Dynamic Vapour Sorption analysis, the detection sample weight is 1 mg-10 mg, the gas flow rate is 10 mL/min, the common detection method is equilibrium at 25° C., humidity 0%, isothermal for 90 minutes, if the weight percentage is less than 0.0100, the next isothermal test is aborted for 15.00 minutes, and the 10% step humidity is 80.00% every 90 minutes. If the weight percentage is less than 0.0100, the next isothermal test is aborted for 15.00 minutes, and the step humidity is 10% to 0.00% every 90 minutes. For the above identification and characterization results of XPRD, TGA, DSC, and DVS, please refer to FIG. 1-82, Table 1-15 and related description.
Take about 10 mg of crystalline form XI sample for Dynamic Vapour Sorption (DVS) test. The conclusions are described in Table 23 below.
About 10 mg of amorphous form XVI sample was taken for dynamic moisture adsorption (DVS) test. The conclusions are described in Table 25 below:
Dynamic water sorption (DVS) was performed on hydrobromide and maleate crystalline samples.

[3] = Stability testing of amorphous form XVI (60° C., 90% RH, light)
Protocol: The amorphous XVI sample was placed at 60° C., with high humidity 90% RH, under the light condition (light condition: 4500 Lux), and sampled on Day 0/5/10 to investigate its content, related substances and crystal form.

[4] = Competitive experiment of crystalline form X and crystalline form XI (suspension stirring, XRD); conditions: acetone/n-heptane, dichloromethane/n-heptane, acetone/water 1/3 v:v; room temperature 1-3 days
Excerpt: Take an equal amount of crystalline form X and crystalline form XI samples, mix them uniformly, and sample for XRD detection.

[5] = Stability test for salt form screening (maleate crystalline form V; HPLC, XRD)
Protocol: Weigh 30 mg of compound (maleate crystalline form V) into a 8 mL glass bottle, then place it at high temperature (60° C., open), high humidity (room temperature/75% RH, open) and light (room temperature, white light: 6980 lux, ultraviolet 282 μW/cm2), take samples on Day 5/10/30 respectively for testing (HPLC, XRD).

[6] = Day 5—light condition (4500 Lux)
[7] = Day 10—light condition (4500 Lux)

CCN1C(C(=O)NC23CCC(C(=O)O)(CC2)CC3)C(c2cccc(Cl)c2F)C2(C(=O)Nc3cc(Cl)ccc32)C12CCCCC2.O (stereo not shown) [Form XI]
content and purity (summary) ([1]; 5 days, 10 days and 30 days, high temperature and high humidity): almost unchanged | Total impurity content (%) ([1]; Day 0): 0.31% | XPRD ([1]; Day 0): Form XI | content (%) ([1]; Day 0): 99.5% | Total impurity content (%) ([1]; Day 5—40° C.): 0.21% | content (%) ([1]; Day 5—40° C.): 99.6% | Total impurity content (%) ([1]; Day 5—60° C.): 0.15% | content (%) ([1]; Day 5—60° C.): 99.1% | Total impurity content (%) ([1]; Day 5—75% RH): 0.16% | content (%) ([1]; Day 5—75% RH): 99.1% | Total impurity content (%) ([1]; Day 10—40° C.): 0.25% | XPRD ([1]; Day 10—40° C.): Form XI | content (%) ([1]; Day 10—40° C.): 99.1% | Total impurity content (%) ([1]; Day 10—60° C.): 0.25% | XPRD ([1]; Day 10—60° C.): Form XI | content (%) ([1]; Day 10—60° C.): 100.1% | Total impurity content (%) ([1]; Day 10—75% RH): 0.24% | XPRD ([1]; Day 10—75% RH): Form XI | content (%) ([1]; Day 10—75% RH): 99.3% | Total impurity content (%) ([1]; Day 30—40° C.): 0.33% | XPRD ([1]; Day 30—40° C.): Form XI | content (%) ([1]; Day 30—40° C.): 98.9% | Total impurity content (%) ([1]; Day 30—75% RH): 0.32% | XPRD ([1]; Day 30—75% RH): Form XI | content (%) ([1]; Day 30—75% RH): 100.5% | XRPD before and after DVS [2]: Unchanged | water absorption during storage (conclusion from DVS) [2]: not easy to absorb water | DVS weight change of 0% RH-80% RH [2]: 0.17±0.05% | Weight Gain (80% RH) [2]: 0.01%

CCN1C(C(=O)NC23CCC(C(=O)O)(CC2)CC3)C(c2cccc(Cl)c2F)C2(C(=O)Nc3cc(Cl)ccc32)C12CCCCC2 (stereo not shown) [Form XVI]
Total impurity content (%) ([3]; Day 0): 0.38% | XPRD ([3]; Day 0): Amorphous | content (%) ([3]; Day 0): 99.4% | Total impurity content (%) ([3]; Day 5—60° C.): 0.48% | content (%) ([3]; Day 5—60° C.): 101.7% | Total impurity content (%) ([3]; Day 5—90% RH): 0.40% | content (%) ([3]; Day 5—90% RH): 102.1% | Total impurity content (%) [3, 6]: 0.44% | content (%) [3, 6]: 102.4% | Total impurity content (%) ([3]; Day 10—60° C.): 0.54% | XPRD ([3]; Day 10—60° C.): Amorphous | content (%) ([3]; Day 10—60° C.): 99.0% | Total impurity content (%) ([3]; Day 10—90% RH): 0.40% | XPRD ([3]; Day 10—90% RH): Amorphous | content (%) ([3]; Day 10—90% RH): 101.1% | Total impurity content (%) [3, 7]: 0.57% | XPRD [3, 7]: Amorphous | content (%) [3, 7]: 100.4% | XRPD before and after DVS [2]: Unchanged | water absorption during storage (conclusion from DVS) [2]: not easy to absorb water | DVS weight change of 0% RH-80% RH [2]: 2.5±0.5% | Weight Gain (80% RH) [2]: 2.32%

CCN1C(C(=O)NC23CCC(C(=O)O)(CC2)CC3)C(c2cccc(Cl)c2F)C2(C(=O)Nc3cc(Cl)ccc32)C12CCCCC2 (stereo not shown) [crystalline form X]
form after stirring mixed sample of form X and form XI (XRD) [4]: converted to crystalline form XI | DVS water absorption 0% RH-60% RH ([2]; 0% RH-60% RH): < 0.1% | DVS weight change 60% RH-80% RH ([2]; 60% RH-80% RH): 1.6±0.2%

Br.CCN1C(C(=O)NC23CCC(C(=O)O)(CC2)CC3)C(c2cccc(Cl)c2F)C2(C(=O)Nc3cc(Cl)ccc32)C12CCCCC2 (stereo not shown) [hydrobromide crystalline form VI]
Weight Gain (80% RH) [2]: 5.1% (hygroscopic)

CCN1C(C(=O)NC23CCC(C(=O)O)(CC2)CC3)C(c2cccc(Cl)c2F)C2(C(=O)Nc3cc(Cl)ccc32)C12CCCCC2.O=C(O)C=CC(=O)O (stereo not shown) [maleate crystalline form V]
XRPD before and after DVS [2]: Unchanged | Weight Gain (80% RH) [2]: 1.2% (slightly | Total impurity content (%) ([5]; Day 0): 1.20% | XPRD ([5]; Day 0): Form V | content and purity (summary) ([5]; Day 5/10/30, high temperature, high humidity and light): almost unchanged | Total impurity content (%) ([5]; Day 5—60° C.): 1.20% | XPRD ([5]; Day 5—60° C.): Form V | Total impurity content (%) ([5]; Day 5—75% RH): 1.10% | XPRD ([5]; Day 5—75% RH): Form V | Total impurity content (%) ([5]; Day 5—light): 1.10% | XPRD ([5]; Day 5—light): Form V | Total impurity content (%) ([5]; Day 10—60° C.): 1.20% | XPRD ([5]; Day 10—60° C.): Form V | Total impurity content (%) ([5]; Day 10—75% RH): 1.20% | XPRD ([5]; Day 10—75% RH): Form V | Total impurity content (%) ([5]; Day 10—light): 1.10% | XPRD ([5]; Day 10—light): Form V | Total impurity content (%) ([5]; Day 30—60° C.): 1.20% | XPRD ([5]; Day 30—60° C.): Form V | Total impurity content (%) ([5]; Day 30—75% RH): 1.10% | XPRD ([5]; Day 30—75% RH): Form V
